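GI50 marks 50% less growth. TGI: total growth inhibition.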
Key:
Assay in all cases: DTP human tumour cell line panel, 384-well format; in the data active = GI50 below about 0.43 µM; inactive = the rest
NCI-H23 lung = test system: NCI-H23 lung
NCI-H322M lung = test system: NCI-H322M lung
NCI-H460 NSCLC = test system: NCI-H460 NSCLC
NCI-H522 lung = test system: NCI-H522 lung
NCI/ADR-RES ovarian = test system: NCI/ADR-RES ovarian
OVCAR-3 ovarian = test system: OVCAR-3 ovarian
OVCAR-4 ovarian = test system: OVCAR-4 ovarian
OVCAR-5 ovarian = test system: OVCAR-5 ovarian
OVCAR-8 ovarian = test system: OVCAR-8 ovarian
PC-3 prostate = test system: PC-3 prostate
RPMI-8226 leukemia = test system: RPMI-8226 leukemia
RXF 393 renal = test system: RXF 393 renal
SF-268 CNS = test system: SF-268 CNS
SF-295 CNS = test system: SF-295 CNS
SF-539 CNS = test system: SF-539 CNS
SK-MEL-28 melanoma = test system: SK-MEL-28 melanoma
SK-MEL-5 melanoma = test system: SK-MEL-5 melanoma
SK-OV-3 ovarian = test system: SK-OV-3 ovarian
SN12C renal = test system: SN12C renal
SNB-19 CNS = test system: SNB-19 CNS
SNB-75 CNS = test system: SNB-75 CNS
SR leukemia = test system: SR leukemia
SW-620 colon = test system: SW-620 colon
T-47D breast = test system: T-47D breast
TK-10 renal = test system: TK-10 renal
U251 glioblastoma = test system: U251 glioblastoma
UACC-257 melanoma = test system: UACC-257 melanoma
UACC-62 melanoma = test system: UACC-62 melanoma
UO-31 renal = test system: UO-31 renal

CC(O)c1cc(C(=O)N[C@@H](C)Cn2ccc(-c3ccc(C#N)c(Cl)c3)n2)n[nH]1 (stereo partly drawn)
36.5 µM: TGI (SK-MEL-5 melanoma)
> 63 µM: TGI (UO-31 renal)
inactive: GI50 (NCI-H23 lung) 27.2 µM | GI50 (NCI-H322M lung) 34.9 µM | GI50 (NCI-H460 NSCLC) > 76.4 µM | GI50 (NCI-H522 lung) 43.3 µM | GI50 (NCI/ADR-RES ovarian) > 100 µM | GI50 (OVCAR-3 ovarian) > 94.2 µM | GI50 (OVCAR-4 ovarian) 31.3 µM | GI50 (OVCAR-5 ovarian) > 100 µM | GI50 (OVCAR-8 ovarian) 35.3 µM | GI50 (PC-3 prostate) > 100 µM | GI50 (RPMI-8226 leukemia) 21.9 µM | GI50 (RXF 393 renal) 22.9 µM | GI50 (SF-268 CNS) > 76.2 µM | GI50 (SF-295 CNS) > 57.4 µM | GI50 (SF-539 CNS) > 100 µM | GI50 (SK-MEL-28 melanoma) > 100 µM | GI50 (SK-MEL-5 melanoma) 17.5 µM | GI50 (SK-OV-3 ovarian) > 64.3 µM | GI50 (SN12C renal) > 100 µM | GI50 (SNB-19 CNS) > 100 µM | GI50 (SNB-75 CNS) > 74.4 µM | GI50 (SR leukemia) 15.9 µM | GI50 (SW-620 colon) > 100 µM | GI50 (T-47D breast) 17.8 µM | GI50 (TK-10 renal) > 100 µM | GI50 (U251 glioblastoma) > 100 µM | GI50 (UACC-257 melanoma) > 80.4 µM | GI50 (UACC-62 melanoma) > 80.4 µM | GI50 (UO-31 renal) > 45.2 µM
59.4 µM: TGI (T-47D breast)
69.6 µM: TGI (RXF 393 renal)
96.9 µM: TGI (OVCAR-8 ovarian)
33.8 µM: TGI (SR leukemia)
> 100 µM: TGI (NCI-H23 lung) | TGI (NCI-H322M lung) | TGI (NCI-H460 NSCLC) | TGI (NCI-H522 lung) | TGI (NCI/ADR-RES ovarian) | TGI (OVCAR-3 ovarian) | TGI (OVCAR-4 ovarian) | TGI (OVCAR-5 ovarian) | TGI (PC-3 prostate) | TGI (SF-268 CNS) | TGI (SF-295 CNS) | TGI (SF-539 CNS) | TGI (SK-MEL-28 melanoma) | TGI (SK-OV-3 ovarian) | TGI (SN12C renal) | TGI (SNB-19 CNS) | TGI (SNB-75 CNS) | TGI (SW-620 colon) | TGI (TK-10 renal) | TGI (U251 glioblastoma) | TGI (UACC-257 melanoma) | TGI (UACC-62 melanoma)
> 70.8 µM: TGI (RPMI-8226 leukemia)

Source: PubChem BioAssay (NCI)
